According to patent publication US20110028710A1, “PROCESS FOR THE RECOVERY OF HCL FROM A DILUTE SOLUTION THEREOF AND EXTRACTANT COMPOSITION FOR USE THEREIN” (HCL CLEANTECH LTD., priority 2008, published 2011):

Tests used:
[1] = analogous water-soluble acids of the prior-art strong acids; cited from earlier work
[2] = pH of 1N NaCl solution after contact with the organic acid (indirect acid strength test); conditions: 1 mol acid at 0.2 molar or higher in organic solvent contacted with equivalent NaCl in 1N aqueous solution
Excerpt: The stronger the organic acid, the more the reaction moves in the right direction and the lower is the pH of the formed aqueous solution.

Compound | pKa [1] | pH of the sodium chloride solution [2]
O=C(O)c1c(Cl)ccc(Cl)c1C(=O)O [3,6-dichlorophtalic] | 1.46 | –
CCCCCCCCCCCC(=O)O [Lauric, lauric acid] | – | > 5
